Results as given in US6518243B1, “Desleucyl glycopeptide antibiotics and methods of making same” (Trustees of Princeton University, priority 1999, dated 2003).

How the values were obtained:
Experiment in all cases: Zone of inhibition screen, 96 well agar array format
Assay type in all cases: cell-based
Set-up in all cases: scale not given here
E. faecalis (CL 4877) = tested on: E. faecalis (CL 4877)
Method in brief: (§1)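 Agar-array screen, 96-well; single compounds vs. strain panel (panel also incl. E. faecium ATCC 49624); antibacterial activity scored.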

S. aureus (ATCC 29213) = tested on: S. aureus (ATCC 29213)
Method in brief: as §1

[1] = tested on: S. epidermidis (ATCC 12228)
Method in brief: as §1

[2] = zone of inhibition relative to 1 mg/ml stock solution of p-chlorobiphenylvancomycin
[3] = zone of inhibition relative to 1 mg/ml p-chlorobiphenylvancomycin

CC(=O)N1CCC[C@H]1C(=O)N[C@H]1C(=O)N[C@@H](CC(N)=O)C(=O)N[C@H]2C(=O)NC3C(=O)N[C@H](C(=O)N[C@@H](C(=O)O)c4cc(O)cc(O)c4-c4cc3ccc4O)[C@H](O)c3ccc(c(Cl)c3)Oc3cc2cc(c3OC2OC(CO)C(O)C(O)C2OC2CC(C)(NCc3ccc(-c4ccc(Cl)cc4)cc3)C(O)C(C)O2)Oc2ccc(cc2Cl)[C@H]1O (stereo partly drawn) [Compound 183]
2: zone score, E. faecalis CL 4877 (E. faecalis (CL 4877); [2]) | zone score, S. aureus ATCC 29213 (S. aureus (ATCC 29213); [2]) | zone score, S. epidermidis ATCC 12228 [1, 2]

CC1OC(OC2C(Oc3c4cc5cc3Oc3ccc(cc3Cl)C(O)C3NC(=O)C(NC(=O)C5NC(=O)C(CC(N)=O)NC(=O)C(NC(=O)C=Cc5c[nH]cn5)C(O)c5ccc(c(Cl)c5)O4)c4ccc(O)c(c4)-c4c(O)cc(O)cc4C(C(=O)O)NC3=O)OC(CO)C(O)C2O)CC(C)(NCc2ccc(-c3ccc(Cl)cc3)cc2)C1O (stereo not drawn) [Compound 321]
2: zone score, E. faecalis CL 4877 (E. faecalis (CL 4877); [3]) | zone score, S. aureus ATCC 29213 (S. aureus (ATCC 29213); [3]) | zone score, S. epidermidis ATCC 12228 [1, 3]

CC1OC(OC2C(Oc3c4cc5cc3Oc3ccc(cc3Cl)C(O)C3NC(=O)C(NC(=O)C5NC(=O)C(CC(N)=O)NC(=O)C(NC(=O)c5ccc(N)cc5O)C(O)c5ccc(c(Cl)c5)O4)c4ccc(O)c(c4)-c4c(O)cc(O)cc4C(C(=O)O)NC3=O)OC(CO)C(O)C2O)CC(C)(NCc2ccc(-c3ccc(Cl)cc3)cc2)C1O (stereo not drawn) [Compound 274]
2: zone score, E. faecalis CL 4877 (E. faecalis (CL 4877); [3]) | zone score, S. aureus ATCC 29213 (S. aureus (ATCC 29213); [3]) | zone score, S. epidermidis ATCC 12228 [1, 3]

Cc1oncc1C(=O)NC1C(=O)NC(CC(N)=O)C(=O)NC2C(=O)NC3C(=O)NC(C(=O)NC(C(=O)O)c4cc(O)cc(O)c4-c4cc3ccc4O)C(O)c3ccc(c(Cl)c3)Oc3cc2cc(c3OC2OC(CO)C(O)C(O)C2OC2CC(C)(NCc3ccc(-c4ccc(Cl)cc4)cc3)C(O)C(C)O2)Oc2ccc(cc2Cl)C1O (stereo not drawn) [Compound 275]
2: zone score, E. faecalis CL 4877 (E. faecalis (CL 4877); [3]) | zone score, S. aureus ATCC 29213 (S. aureus (ATCC 29213); [3]) | zone score, S. epidermidis ATCC 12228 [1, 3]

CC1OC(OC2C(Oc3c4cc5cc3Oc3ccc(cc3Cl)C(O)C3NC(=O)C(NC(=O)C5NC(=O)C(CC(N)=O)NC(=O)C(NC(=O)c5ccc(S(N)(=O)=O)cc5)C(O)c5ccc(c(Cl)c5)O4)c4ccc(O)c(c4)-c4c(O)cc(O)cc4C(C(=O)O)NC3=O)OC(CO)C(O)C2O)CC(C)(NCc2ccc(-c3ccc(Cl)cc3)cc2)C1O (stereo not drawn) [Compound 269]
2: zone score, E. faecalis CL 4877 (E. faecalis (CL 4877); [3]) | zone score, S. aureus ATCC 29213 (S. aureus (ATCC 29213); [3]) | zone score, S. epidermidis ATCC 12228 [1, 3]

CC(=O)Oc1ccc(C(=O)NC2C(=O)NC(CC(N)=O)C(=O)NC3C(=O)NC4C(=O)NC(C(=O)NC(C(=O)O)c5cc(O)cc(O)c5-c5cc4ccc5O)C(O)c4ccc(c(Cl)c4)Oc4cc3cc(c4OC3OC(CO)C(O)C(O)C3OC3CC(C)(NCc4ccc(-c5ccc(Cl)cc5)cc4)C(O)C(C)O3)Oc3ccc(cc3Cl)C2O)cc1 (stereo not drawn) [Compound 266]
2: zone score, E. faecalis CL 4877 (E. faecalis (CL 4877); [3]) | zone score, S. aureus ATCC 29213 (S. aureus (ATCC 29213); [3]) | zone score, S. epidermidis ATCC 12228 [1, 3]

CC(=O)N1CCCC1C(=O)NC1C(=O)NC(CC(N)=O)C(=O)NC2C(=O)NC3C(=O)NC(C(=O)NC(C(=O)O)c4cc(O)cc(O)c4-c4cc3ccc4O)C(O)c3ccc(c(Cl)c3)Oc3cc2cc(c3OC2OC(CO)C(O)C(O)C2OC2CC(C)(NCc3ccc(-c4ccc(Cl)cc4)cc3)C(O)C(C)O2)Oc2ccc(cc2Cl)C1O (mixture of isomers) [Compound 176]
2: zone score, E. faecalis CL 4877 (E. faecalis (CL 4877); [2]) | zone score, S. aureus ATCC 29213 (S. aureus (ATCC 29213); [2]) | zone score, S. epidermidis ATCC 12228 [1, 2]

CC(=O)C(=O)NC1C(=O)NC(CC(N)=O)C(=O)NC2C(=O)NC3C(=O)NC(C(=O)NC(C(=O)O)c4cc(O)cc(O)c4-c4cc3ccc4O)C(O)c3ccc(c(Cl)c3)Oc3cc2cc(c3OC2OC(CO)C(O)C(O)C2OC2CC(C)(NCc3ccc(-c4ccc(Cl)cc4)cc3)C(O)C(C)O2)Oc2ccc(cc2Cl)C1O (stereo not drawn) [Compound 314]
2: zone score, E. faecalis CL 4877 (E. faecalis (CL 4877); [3]) | zone score, S. aureus ATCC 29213 (S. aureus (ATCC 29213); [3]) | zone score, S. epidermidis ATCC 12228 [1, 3]

CC(=O)NC(Cc1cnc[nH]1)C(=O)NC1C(=O)NC(CC(N)=O)C(=O)NC2C(=O)NC3C(=O)NC(C(=O)NC(C(=O)O)c4cc(O)cc(O)c4-c4cc3ccc4O)C(O)c3ccc(c(Cl)c3)Oc3cc2cc(c3OC2OC(CO)C(O)C(O)C2OC2CC(C)(NCc3ccc(-c4ccc(Cl)cc4)cc3)C(O)C(C)O2)Oc2ccc(cc2Cl)C1O (mixture of isomers) [Compound 324]
2: zone score, E. faecalis CL 4877 (E. faecalis (CL 4877); [3]) | zone score, S. aureus ATCC 29213 (S. aureus (ATCC 29213); [3]) | zone score, S. epidermidis ATCC 12228 [1, 3]

CC1OC(OC2C(Oc3c4cc5cc3Oc3ccc(cc3Cl)C(O)C3NC(=O)C(NC(=O)C5NC(=O)C(CC(N)=O)NC(=O)C(NC(=O)C(N)CSCCO)C(O)c5ccc(c(Cl)c5)O4)c4ccc(O)c(c4)-c4c(O)cc(O)cc4C(C(=O)O)NC3=O)OC(CO)C(O)C2O)CC(C)(NCc2ccc(-c3ccc(Cl)cc3)cc2)C1O (stereo not drawn) [Compound 48]
2: zone score, E. faecalis CL 4877 (E. faecalis (CL 4877); [2]) | zone score, S. aureus ATCC 29213 (S. aureus (ATCC 29213); [2]) | zone score, S. epidermidis ATCC 12228 [1, 2]
